What was measured:
[1] = compound: CC1=C(C(=NN1)C)CC2=C(C3=C(S2)N(C(=O)N(C3=O)C)CC(C)C)C(=O)N4C[C@@H](CO4)O + CC(=O)Nc1cccc(-n2c(=O)n(C3CC3)c(=O)c3c(Nc4ccc(I)cc4F)n(C)c(=O)c(C)c32)c1 [Trametinib] (partner 0.02 µM); experiment: relative viability (nuclei count vs DMSO), 5 days (fraction); higher = more cells survive
Procedure, shortened: (§1)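 Relative viability was taken as the ratio of nuclei in treated wells to nuclei in vehicle wells. Lung cancer cell lines in 1536-well plates received compounds by pin tool one day after seeding, either one drug alone or a fixed anchor-drug dose plus five library-drug doses (not always all listed) in √10 steps. Nuclei were counted on 4× images after 5 days of treatment, and values are medians of duplicate plates.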

IDH-C35 + Dasatinib = compound: Cc1ccccc1C(C(=O)NC1CCCCC1)N(C(=O)Cn1ccnc1C)c1cccc(F)c1 [IDH-C35] + Cc1nc(Nc2ncc(C(=O)Nc3c(C)cccc3Cl)s2)cc(N2CCN(CCO)CC2)n1 [Dasatinib] (partner 0.075 µM); experiment: as above
Procedure, shortened: as §1

Row | Cell Line | relative viability ([1]; first compound 0.0025 µM) | relative viability ([1]; first compound 0.007906 µM) | relative viability ([1]; first compound 0.025 µM) | relative viability ([1]; first compound 0.07906 µM) | relative viability ([1]; first compound 0.25 µM) | relative viability (IDH-C35 + Dasatinib; first compound 0.08 µM) | relative viability (IDH-C35 + Dasatinib; first compound 0.253 µM) | relative viability (IDH-C35 + Dasatinib; first compound 0.8 µM) | relative viability (IDH-C35 + Dasatinib; first compound 2.53 µM) | relative viability (IDH-C35 + Dasatinib; first compound 8 µM)
1 | COR-L23 | 0.662 | 0.74 | 0.452 | 0.547 | 0.712 | 0.479 | 0.438 | 0.48 | 0.443 | 0.445
2 | ABC-1 | – | – | – | – | – | 0.583 | 0.58 | 0.485 | 0.476 | 0.631
3 | SW 900 | 0.666 | 0.951 | 0.787 | 0.74 | 0.8 | 0.534 | 0.764 | 0.478 | 0.578 | 0.552
4 | NCI-H838 | 0.498 | 0.569 | 0.393 | 0.452 | 0.505 | 0.343 | 0.303 | 0.298 | 0.32 | 0.303
5 | NCI-H1648 | 0.593 | 0.431 | 0.635 | 0.356 | 0.52 | – | – | – | – | –
6 | A-427 | 0.748 | 0.754 | 0.809 | 0.754 | 0.763 | 0.738 | 0.636 | 0.685 | 0.702 | 0.658
7 | NCI-H1792 | 0.471 | 0.418 | 0.409 | 0.548 | 0.585 | 0.725 | 0.728 | 0.473 | 0.944 | 0.815
8 | LCLC-97TM1 | 0.178 | 0.184 | 0.249 | 0.158 | 0.189 | 0.87 | 0.796 | 0.822 | 0.818 | 0.809
9 | LCLC-103H | 0.681 | 0.689 | 0.664 | 0.688 | 0.661 | 0.485 | 0.441 | 0.45 | 0.423 | 0.514
10 | PC-3 [JPC-3] | 0.74 | 0.649 | 0.718 | 0.678 | 0.682 | 1 | 0.923 | 1.02 | 0.989 | 0.972
11 | BEN | 0.955 | 0.927 | 0.922 | 0.862 | 0.826 | 0.308 | 0.373 | 0.289 | 0.333 | 0.293
12 | NCI-H1666 | 0.876 | 0.824 | 0.885 | 0.786 | 0.891 | 0.784 | 0.807 | 0.794 | 0.795 | 0.728
13 | LC-2-ad | 0.928 | 0.874 | 0.922 | 0.896 | 0.927 | 0.596 | 0.65 | 0.568 | – | 0.593
14 | SK-LU-1 | 0.47 | 0.409 | 0.326 | 0.344 | 0.374 | 0.188 | 0.181 | 0.172 | 0.177 | 0.191
15 | ChaGo-K-1 | 0.94 | 0.871 | 0.889 | 0.918 | 0.916 | 0.64 | 0.615 | 0.598 | 0.63 | 0.601
16 | COR-L 105 | 0.48 | 0.443 | 0.511 | 0.466 | 0.406 | 0.394 | 0.394 | 0.403 | 0.323 | 0.349
17 | NCI-H1975 | 0.38 | 0.358 | 0.403 | 0.491 | 0.33 | 0.35 | 0.42 | 0.366 | 0.483 | 0.346
